Reference: article PMC11375437, “Selective labelling of GBA2 in cells with fluorescent β-D-arabinofuranosyl cyclitol aziridines” (Chemical Science, 2024)

Columns and labels:
[1] = tested on: GBA2; assay: Labelling of GBA2 orthologue in zebrafish larvae homogenates; assay type: biochemical, zebrafish (Danio rerio); settings: 1 h at 37 °C; ABP 3 and 7 at 1 μM, ABP 4 and 5 at 2.5 μM
Method: (§1) GBA2 orthologs are highly conserved among different species. […] The labelling capability of β-D-Araf aziridine ABPs toward GBA2 orthologs in these species was therefore evaluated. Homogenates of zebrafish larvae or mice brain homogenates were incubated with β-D-Araf ABPs 3–5 or broad-spectrum ABP 7 (Fig. 4).
(§2) Fig. 4 Fluorescent gel images of selective labelling of GBA2 orthologues by β-D-Araf aziridine ABPs in different species. Cyclophellitol-aziridine ABP 7 (1 μM) and β-D-Araf ABPs (ABP 3 at 1 μM and ABP 4 and 5 at 2.5 μM) were incubated with homogenates of zebrafish (15 μg total protein) and mice brain (15 μg total protein) for 1 h at 37 °C. […]
(§3) were transferred to nitrocellulose membrane for western blotting. Ponceau S staining was used to show total protein loading. […]
(§4) 2.12 Reactivity of β-D-Araf aziridines towards GBA2 orthologue in other species β-D-Araf aziridine ABP 3-5 or ABP 7 was incubated with homogenates of zebrafish (Danio rerio) larvae or mice brain for 1 h at 37 °C. […] The zebrafish homogenates were passed through a desalting column (in the same way as described for the irreversibility evaluation above) to remove interference from biological pigments when scanning at λEX 473 nm and λEM ≥ 510 nm for BODIPY green fluorescence. […]

[2] = biological target: T1, GBA2 (Mus musculus, UniProt Q69ZF3); assay: Labelling of GBA2 orthologue in mice brain homogenates; assay type: biochemical; settings: 1 h at 37 °C; ABP 3 and 7 at 1 μM, ABP 4 and 5 at 2.5 μM
T1 construct: from tissue; host or cells: mouse brain homogenate
T1 sequence (Q69ZF3 1-918): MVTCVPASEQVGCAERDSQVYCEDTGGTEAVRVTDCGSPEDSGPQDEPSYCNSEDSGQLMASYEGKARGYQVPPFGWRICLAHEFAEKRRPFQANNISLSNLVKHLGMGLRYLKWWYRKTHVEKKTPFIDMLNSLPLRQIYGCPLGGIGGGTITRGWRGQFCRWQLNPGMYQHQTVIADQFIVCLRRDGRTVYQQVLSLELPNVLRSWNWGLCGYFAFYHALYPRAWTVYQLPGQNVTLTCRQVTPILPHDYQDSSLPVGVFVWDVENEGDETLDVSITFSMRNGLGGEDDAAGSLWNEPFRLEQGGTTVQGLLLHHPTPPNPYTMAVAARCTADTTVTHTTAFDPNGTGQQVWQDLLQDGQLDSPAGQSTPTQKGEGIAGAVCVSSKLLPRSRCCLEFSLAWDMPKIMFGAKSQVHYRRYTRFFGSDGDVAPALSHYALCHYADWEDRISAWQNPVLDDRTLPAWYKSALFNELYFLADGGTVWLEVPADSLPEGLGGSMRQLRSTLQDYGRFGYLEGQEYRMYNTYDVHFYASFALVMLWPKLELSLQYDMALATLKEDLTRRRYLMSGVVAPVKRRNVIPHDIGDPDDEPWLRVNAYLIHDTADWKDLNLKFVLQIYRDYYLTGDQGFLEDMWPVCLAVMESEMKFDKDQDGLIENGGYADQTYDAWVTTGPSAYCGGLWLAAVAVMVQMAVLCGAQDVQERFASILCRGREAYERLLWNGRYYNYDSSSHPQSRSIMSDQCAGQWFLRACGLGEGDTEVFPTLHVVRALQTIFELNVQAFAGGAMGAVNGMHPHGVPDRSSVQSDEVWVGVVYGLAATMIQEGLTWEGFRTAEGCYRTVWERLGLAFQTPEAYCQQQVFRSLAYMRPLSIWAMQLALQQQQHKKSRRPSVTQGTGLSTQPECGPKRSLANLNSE
Method: as §1, §2, §3, §4

Structure (SMILES): CN1/C(=C/C=C/C=C/C2=[N+](CCCCCC(=O)NCc3cn(CCCCCCCCN4[C@@H]5[C@H](CO)[C@@H](O)[C@H](O)[C@@H](O)[C@@H]54)nn3)c3ccccc3C2(C)C)C(C)(C)c2ccccc21 (some centres unmarked) [ABP 7]
- Labelling selectivity in zebrafish larvae homogenates [1]: show cross-reactivity towards GBA1
- Labelling selectivity in mice brain homogenates [2]: show cross-reactivity towards GBA1
